Entries after “also recorded” stand apart in the source; their conditions may differ.
What was measured:
O. perornata [1] = assay: Pond efficacy testing of 9,10-anthraquinone using limnocorrals: O. perornata numbers; assay type: in vivo, Oscillatoria perornata; conditions: dissolved in ethanol, unpublished observations
Source text: (§1) Previous research (K. K. Schrader, M. Q. de Regt, P. D. Tidwell, C. S. Tucker and S. O. Duke, Selective growth inhibition of the musty-odor producing cyanobacterium Oscillatoria cf. chalybea by natural compounds. Bull. Environ. Contam. Toxicol. (1998a), vol. 60, pp. 651-658) has identified several natural compounds from plants that are selectively toxic towards O. perornata.

MIB = assay: Pond efficacy testing of 9,10-anthraquinone using limnocorrals: MIB levels; assay type: in vivo; conditions: dissolved in ethanol, unpublished observations
Source text: as §1

O. perornata [2] = conditions: cited from earlier work

O=C1c2ccccc2C(=O)c2ccccc21 [9,10-anthraquinone]
reduction of numbers of O. perornata in pond (result in words) (O. perornata [1]): did not effectively reduce
reduction of MIB levels in pond (result in words) (MIB): did not effectively reduce
effect on photosynthesis (result in words) (O. perornata [2]; Schrader et al. 2000): inhibits photosynthesis
activity / toxicity towards O. perornata in the laboratory (result in words) (O. perornata [2]; previous research (Schrader et al. 1998)): high degree of selective toxicity; also recorded: potent activity

— patent US6949250B2, “Selective algaecides for control of cyanochloronta” (The United States of America as represented by the …, priority 2002, dated 2005)
